# Experimental data as given in patent US20210171598A1, “PEPTIDE HORMONE WITH ONE OR MORE O-GLYCANS” (priority 2017, published 2021).
# Where two headings read alike, the source gives them in different places.
# Target: neprilysin (NEP) (Homo sapiens, UniProt P08473)
# Experiment: In vitro degradation by neprilysin, MALDI-TOF time course
# Procedure: Many peptide hormones are destined for endocrine circulation where they are rapidly degraded with half-lives reaching only a few minutes^6-8.
# For enzymatic degradation assays using either NEP or DPP-IV (R&D systems, UK), an enzyme titration was carried out to ensure full degradation within one hour of reaction time.
# MALDI-TOF-MS was performed on a Bruker Autoflex instrument (Bruker Daltonik GmbH, Bremen, Germany) by mixing the quenched aliquots with a saturated solution of α-Cyano-4-hydroxycinnamic acid in ACN/H2O/TFA (70:30:0.1) at a ratio 1:1 on a target steel plate and mass-spectra were acquired in linear mode.
# Reactions were performed in 50 mM Tris, 0.05% Brij-35, pH 9 (Neprilysin), or 50 mM Tris, 20 mM NaCl, pH 7.5 (IDE) and incubated at 37° C.
# Sequence of neprilysin (NEP) (P08473 whole entry): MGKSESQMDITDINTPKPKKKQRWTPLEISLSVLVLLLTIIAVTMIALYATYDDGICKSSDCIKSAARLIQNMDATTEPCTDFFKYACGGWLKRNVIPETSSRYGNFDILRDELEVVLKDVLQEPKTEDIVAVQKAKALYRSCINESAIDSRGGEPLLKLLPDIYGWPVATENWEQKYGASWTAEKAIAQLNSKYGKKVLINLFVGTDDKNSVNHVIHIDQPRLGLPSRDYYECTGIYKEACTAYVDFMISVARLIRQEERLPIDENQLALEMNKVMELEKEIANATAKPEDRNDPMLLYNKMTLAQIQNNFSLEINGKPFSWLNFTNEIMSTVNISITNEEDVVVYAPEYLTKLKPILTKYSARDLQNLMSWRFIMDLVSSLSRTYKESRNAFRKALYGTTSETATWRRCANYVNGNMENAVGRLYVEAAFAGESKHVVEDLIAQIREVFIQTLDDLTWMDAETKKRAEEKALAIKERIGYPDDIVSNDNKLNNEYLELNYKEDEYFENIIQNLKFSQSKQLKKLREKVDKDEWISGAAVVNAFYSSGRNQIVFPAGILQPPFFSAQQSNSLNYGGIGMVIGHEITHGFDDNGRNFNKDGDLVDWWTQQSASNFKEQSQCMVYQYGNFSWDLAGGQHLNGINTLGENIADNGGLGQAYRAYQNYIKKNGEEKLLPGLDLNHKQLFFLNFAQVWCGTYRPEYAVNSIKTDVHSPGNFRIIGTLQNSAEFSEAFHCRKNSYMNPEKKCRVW
compound,measurement,setting,value
CC[C@H](C)[C@H](NC(=O)[C@H](CO)NC(=O)[C@H](CC(N)=O)NC(=O)[C@H](CC(C)C)NC(=O)[C@H](Cc1ccc(O)cc1)NC(=O)[C@H](CCCCN)NC(=O)[C@H](CCCCN)NC(=O)[C@@H](NC(=O)[C@H](C)NC(=O)[C@H](CCSC)NC(=O)[C@H](CCC(N)=O)NC(=O)[C@H](CCCCN)NC(=O)[C@H](CCCNC(=N)N)NC(=O)[C@H](CC(C)C)NC(=O)[C@H](CCCNC(=N)N)NC(=O)[C@@H](NC(=O)[C@H](Cc1ccc(O)cc1)NC(=O)[C@H](CC(N)=O)NC(=O)[C@H](CC(=O)O)NC(=O)[C@@H](NC(=O)[C@H](Cc1ccccc1)NC(=O)[C@@H](NC(=O)[C@H](C)NC(=O)[C@H](CC(=O)O)NC(=O)[C@H](CO)NC(=O)[C@@H](N)Cc1c[nH]cn1)C(C)C)[C@@H](C)O[C@H]1O[C@H](CO)[C@H](O)[C@H](O[C@@H]2O[C@H](CO)[C@H](O)[C@H](O)[C@H]2O)[C@H]1NC(C)=O)[C@@H](C)O)C(C)C)C(=O)N[C@@H](CC(C)C)C(=O)N[C@@H](CC(N)=O)C(N)=O [VIP-Thr7/T],residual full length / partially intact peptide detectable after incubation with NEP,"37° C., MALDI-TOF",30 min
CC[C@H](C)[C@H](NC(=O)[C@H](CO)NC(=O)[C@H](CC(N)=O)NC(=O)[C@H](CC(C)C)NC(=O)[C@H](Cc1ccc(O)cc1)NC(=O)[C@H](CCCCN)NC(=O)[C@H](CCCCN)NC(=O)[C@@H](NC(=O)[C@H](C)NC(=O)[C@H](CCSC)NC(=O)[C@H](CCC(N)=O)NC(=O)[C@H](CCCCN)NC(=O)[C@H](CCCNC(=N)N)NC(=O)[C@H](CC(C)C)NC(=O)[C@H](CCCNC(=N)N)NC(=O)[C@@H](NC(=O)[C@H](Cc1ccc(O)cc1)NC(=O)[C@H](CC(N)=O)NC(=O)[C@H](CC(=O)O)NC(=O)[C@@H](NC(=O)[C@H](Cc1ccccc1)NC(=O)[C@@H](NC(=O)[C@H](C)NC(=O)[C@H](CC(=O)O)NC(=O)[C@H](CO)NC(=O)[C@@H](N)Cc1c[nH]cn1)C(C)C)[C@@H](C)O[C@H]1O[C@H](CO)[C@H](O)[C@H](O)[C@H]1NC(C)=O)[C@@H](C)O)C(C)C)C(=O)N[C@@H](CC(C)C)C(=O)N[C@@H](CC(N)=O)C(N)=O [VIP-Thr7/Tn],residual full length / partially intact peptide detectable after incubation with NEP,"37° C., MALDI-TOF",15 min
CC(=O)N[C@H]1[C@@H](O[C@H](C)[C@H](NC(=O)[C@H](Cc2ccccc2)NC(=O)[C@@H](NC(=O)CNC(=O)[C@H](CC(=O)O)NC(=O)[C@H](CO)NC(=O)[C@@H](N)Cc2c[nH]cn2)[C@@H](C)O)C(=O)N[C@@H](CO)C(=O)N[C@@H](CCC(=O)O)C(=O)N[C@@H](CC(C)C)C(=O)N[C@@H](CO)C(=O)N[C@@H](CCCNC(=N)N)C(=O)N[C@@H](CC(C)C)C(=O)N[C@@H](CCCNC(=N)N)C(=O)N[C@@H](CCC(=O)O)C(=O)NCC(=O)N[C@@H](C)C(=O)N[C@@H](CCCNC(=N)N)C(=O)N[C@@H](CC(C)C)C(=O)N[C@@H](CCC(N)=O)C(=O)N[C@@H](CCCNC(=N)N)C(=O)N[C@@H](CC(C)C)C(=O)N[C@@H](CC(C)C)C(=O)N[C@@H](CCC(N)=O)C(=O)NCC(=O)N[C@@H](CC(C)C)C(=O)N[C@H](C(N)=O)C(C)C)O[C@H](CO)[C@H](O)[C@@H]1O [Secretin-Thr7-Tn],remained (completely) intact after incubation with NEP,"37° C., MALDI-TOF",60 min
"CC[C@H](C)[C@H](NC(=O)[C@H](CO)NC(=O)[C@H](CC(N)=O)NC(=O)[C@H](CC(C)C)NC(=O)[C@H](Cc1ccc(O)cc1)NC(=O)[C@H](CCCCN)NC(=O)[C@H](CCCCN)NC(=O)[C@@H](NC(=O)[C@H](C)NC(=O)[C@H](CCSC)NC(=O)[C@H](CCC(N)=O)NC(=O)[C@H](CCCCN)NC(=O)[C@H](CCCN=C(N)N)NC(=O)[C@H](CC(C)C)NC(=O)[C@H](CCCN=C(N)N)NC(=O)[C@@H](NC(=O)[C@H](Cc1ccc(O)cc1)NC(=O)[C@H](CC(N)=O)NC(=O)[C@H](CC(=O)O)NC(=O)[C@@H](NC(=O)[C@H](Cc1ccccc1)NC(=O)[C@@H](NC(=O)[C@H](C)NC(=O)[C@H](CC(=O)O)NC(=O)[C@H](CO)NC(=O)[C@@H](N)Cc1c[nH]cn1)C(C)C)[C@@H](C)O)[C@@H](C)O)C(C)C)C(=O)N[C@@H](CC(C)C)C(=O)N[C@@H](CC(N)=O)C(N)=O [VIP, Vasoactive intestinal peptide, reference compound]",time to complete degradation by NEP,"37° C., MALDI-TOF",15 min
CC[C@H](C)[C@@H]1NC(=O)[C@H](CCCNC(=N)N)NC(=O)[C@H](CC(=O)O)NC(=O)[C@H](CCSC)NC(=O)[C@H](CCCNC(=N)N)NC(=O)CNC(=O)CNC(=O)[C@H](Cc2ccccc2)NC(=O)[C@@H](NC(=O)[C@H](CO)NC(=O)[C@H](CO)NC(=O)[C@H](CCCNC(=N)N)NC(=O)[C@H](CCCNC(=N)N)NC(=O)[C@H](CC(C)C)NC(=O)[C@@H](N)CO)CSSC[C@@H](C(=O)N[C@@H](CC(N)=O)C(=O)N[C@@H](CO)C(=O)N[C@@H](Cc2ccccc2)C(=O)N[C@@H](CCCNC(=N)N)C(=O)N[C@@H](Cc2ccc(O)cc2)C(=O)O)NC(=O)CNC(=O)[C@H](CC(C)C)NC(=O)CNC(=O)[C@H](CO[C@H]2O[C@H](CO)[C@H](O)[C@H](O)[C@H]2NC(C)=O)NC(=O)[C@H](CCC(N)=O)NC(=O)[C@H](C)NC(=O)CNC1=O [ANP-Ser19/Tn],major degradation products remained detectable after incubation with neprilysin,37° C.,24 h
same,residual full length / partially intact peptide detectable after incubation with NEP,"37° C., MALDI-TOF",60 min
Galanin-Ser55/ST: sialylated Galanin variant,remained intact / resistant to NEP degradation even after,,24 h
same,state after overnight incubation with neprilysin,,remained partially intact
Ser23-Tn: Galanin Ser23-Tn glycoform,time to complete degradation by NEP,,120 min
Ser23-T: Galanin Ser23 T extended glycoform,time to complete degradation by NEP,,120 min
CC[C@H](C)[C@@H]1NC(=O)[C@H](CCCNC(=N)N)NC(=O)[C@H](CC(=O)O)NC(=O)[C@H](CCSC)NC(=O)[C@H](CCCNC(=N)N)NC(=O)CNC(=O)CNC(=O)[C@H](Cc2ccccc2)NC(=O)[C@@H](NC(=O)[C@H](CO)NC(=O)[C@H](CO)NC(=O)[C@H](CCCNC(=N)N)NC(=O)[C@H](CCCNC(=N)N)NC(=O)[C@H](CC(C)C)NC(=O)[C@@H](N)CO)CSSC[C@@H](C(=O)N[C@@H](CC(N)=O)C(=O)N[C@@H](CO[C@H]2O[C@H](CO)[C@H](O)[C@H](O)[C@H]2NC(C)=O)C(=O)N[C@@H](Cc2ccccc2)C(=O)N[C@@H](CCCNC(=N)N)C(=O)N[C@@H](Cc2ccc(O)cc2)C(=O)O)NC(=O)CNC(=O)[C@H](CC(C)C)NC(=O)CNC(=O)[C@H](CO)NC(=O)[C@H](CCC(N)=O)NC(=O)[C@H](C)NC(=O)CNC1=O [ANP-Ser25/Tn],residual full length / partially intact peptide detectable after incubation with NEP,"37° C., MALDI-TOF",15 min
CC[C@H](C)[C@@H]1NC(=O)[C@H](CCCNC(=N)N)NC(=O)[C@H](CC(=O)O)NC(=O)[C@H](CCSC)NC(=O)[C@H](CCCNC(=N)N)NC(=O)CNC(=O)CNC(=O)[C@H](Cc2ccccc2)NC(=O)[C@@H](NC(=O)[C@H](CO)NC(=O)[C@H](CO)NC(=O)[C@H](CCCNC(=N)N)NC(=O)[C@H](CCCNC(=N)N)NC(=O)[C@H](CC(C)C)NC(=O)[C@@H](N)CO)CSSC[C@@H](C(=O)N[C@@H](CC(N)=O)C(=O)N[C@@H](CO[C@H]2O[C@H](CO)[C@H](O)[C@H](O)[C@H]2NC(C)=O)C(=O)N[C@@H](Cc2ccccc2)C(=O)N[C@@H](CCCNC(=N)N)C(=O)N[C@@H](Cc2ccc(O)cc2)C(=O)O)NC(=O)CNC(=O)[C@H](CC(C)C)NC(=O)CNC(=O)[C@H](CO[C@H]2O[C@H](CO)[C@H](O)[C@H](O)[C@H]2NC(C)=O)NC(=O)[C@H](CCC(N)=O)NC(=O)[C@H](C)NC(=O)CNC1=O [ANP-Ser19+25/Tn],major degradation products remained detectable after incubation with neprilysin,37° C.,24 h
same,residual full length / partially intact peptide detectable after incubation with NEP,"37° C., MALDI-TOF",30 min
"CC(C)C[C@H](NC(=O)CNC(=O)[C@H](CCC(N)=O)NC(=O)[C@H](CC(C)C)NC(=O)[C@H](CC(C)C)NC(=O)[C@H](CCCNC(=N)N)NC(=O)[C@H](CCC(N)=O)NC(=O)[C@H](CC(C)C)NC(=O)[C@H](CCCNC(=N)N)NC(=O)[C@H](C)NC(=O)CNC(=O)[C@H](CCC(=O)O)NC(=O)[C@H](CCCNC(=N)N)NC(=O)[C@H](CC(C)C)NC(=O)[C@H](CCCNC(=N)N)NC(=O)[C@H](CO)NC(=O)[C@H](CC(C)C)NC(=O)[C@H](CCC(=O)O)NC(=O)[C@H](CO)NC(=O)[C@@H](NC(=O)[C@H](Cc1ccccc1)NC(=O)[C@@H](NC(=O)CNC(=O)[C@H](CC(=O)O)NC(=O)[C@H](CO)NC(=O)[C@@H](N)Cc1c[nH]cn1)[C@@H](C)O)[C@@H](C)O)C(=O)N[C@H](C(N)=O)C(C)C [Secretin, reference compound]",time to complete degradation by NEP,"37° C., MALDI-TOF",≤ 60 min
